Data: the NIST ThermoML archive (doi:10.1021/je0501843)
± gives the expanded uncertainty stated by the source.

Test: wn = mass fraction of the nth substance listed
Conditions: Fluid (supercritical or subcritical phases), isochoric method, w1 = 0.5001

FC(F)C(F)(F)F [pentafluoroethane] + FCF
Conditions | mass density [kg/m3]
301 K, 4414 kPa | 1071.2 ± 2.2
302 K, 4977 kPa | 1071 ± 2.2
303 K, 5537 kPa | 1070.9 ± 2.2
303 K, 5540 kPa | 1070.9 ± 2.2
304 K, 6101 kPa | 1070.8 ± 2.2
304 K, 6103 kPa | 1070.8 ± 2.2
305 K, 6663 kPa | 1070.6 ± 2.2
306 K, 7227 kPa | 1070.5 ± 2.2
306 K, 7228 kPa | 1070.5 ± 2.2
307 K, 7791 kPa | 1070.4 ± 2.2
307 K, 7792 kPa | 1070.4 ± 2.2
308 K, 8356 kPa | 1070.2 ± 2.2
308 K, 8357 kPa | 1070.2 ± 2.2
309 K, 8918 kPa | 1070.1 ± 2.2
310 K, 9482 kPa | 1070 ± 2.2
310 K, 9484 kPa | 1070 ± 2.2
311 K, 10048 kPa | 1069.8 ± 2.2
311 K, 10049 kPa | 1069.8 ± 2.2
312 K, 10614 kPa | 1069.7 ± 2.2
312 K, 10615 kPa | 1069.7 ± 2.2
313 K, 11178 kPa | 1069.6 ± 2.2
313 K, 11179 kPa | 1069.6 ± 2.2
314 K, 11741 kPa | 1069.4 ± 2.2
314 K, 11743 kPa | 1069.4 ± 2.2
315 K, 12309 kPa | 1069.3 ± 2.2
316 K, 12875 kPa | 1069.2 ± 2.2
316 K, 12877 kPa | 1069.2 ± 2.2
317 K, 13440 kPa | 1069 ± 2.2
318 K, 14003 kPa | 1068.9 ± 2.2
318 K, 14005 kPa | 1068.9 ± 2.2
319 K, 14570 kPa | 1068.8 ± 2.2
319 K, 14571 kPa | 1068.8 ± 2.2
320 K, 15135 kPa | 1068.6 ± 2.2
320 K, 15137 kPa | 1068.6 ± 2.2
321 K, 15700 kPa | 1068.5 ± 2.2
321 K, 15701 kPa | 1068.5 ± 2.2
322 K, 16263 kPa | 1068.4 ± 2.2
322 K, 16265 kPa | 1068.4 ± 2.2
323 K, 16830 kPa | 1068.2 ± 2.2
324 K, 17394 kPa | 1068.1 ± 2.2
324 K, 17396 kPa | 1068.1 ± 2.2
325 K, 5448 kPa | 946.2 ± 2
325 K, 17959 kPa | 1068 ± 2.2
325 K, 17961 kPa | 1068 ± 2.2
326 K, 5835 kPa | 946.1 ± 1.9
326 K, 5836 kPa | 946.1 ± 1.9
326 K, 18524 kPa | 1067.8 ± 2.2
326 K, 18525 kPa | 1067.8 ± 2.2
327 K, 6224 kPa | 946 ± 1.9
327 K, 6225 kPa | 946 ± 1.9
327 K, 19088 kPa | 1067.7 ± 2.2
327 K, 19090 kPa | 1067.7 ± 2.2
328 K, 6615 kPa | 945.9 ± 1.9
328 K, 6616 kPa | 945.9 ± 1.9
328 K, 19652 kPa | 1067.6 ± 2.2
328 K, 19655 kPa | 1067.6 ± 2.2
329 K, 7006 kPa | 945.8 ± 1.9
329 K, 7007 kPa | 945.8 ± 1.9
330 K, 7397 kPa | 945.7 ± 1.9
330 K, 7399 kPa | 945.7 ± 1.9
331 K, 7788 kPa | 945.6 ± 1.9
331 K, 7790 kPa | 945.6 ± 1.9
332 K, 8183 kPa | 945.5 ± 1.9
332 K, 8184 kPa | 945.5 ± 1.9
333 K, 8579 kPa | 945.4 ± 1.9
334 K, 8970 kPa | 945.4 ± 1.9
334 K, 8971 kPa | 945.4 ± 1.9
335 K, 9364 kPa | 945.3 ± 1.9
336 K, 9759 kPa | 945.2 ± 1.9
337 K, 10156 kPa | 945.1 ± 1.9
337 K, 10157 kPa | 945.1 ± 1.9
338 K, 6179 kPa | 859.9 ± 1.8
338 K, 10552 kPa | 945 ± 1.9
338 K, 10553 kPa | 945 ± 1.9
339 K, 6478 kPa | 859.9 ± 1.8
339 K, 10948 kPa | 944.9 ± 1.9
340 K, 6782 kPa | 859.8 ± 1.8
340 K, 11344 kPa | 944.8 ± 1.9
340 K, 11346 kPa | 944.8 ± 1.9
341 K, 7089 kPa | 859.7 ± 1.7
341 K, 11743 kPa | 944.7 ± 1.9
341 K, 11745 kPa | 944.7 ± 1.9
342 K, 7389 kPa | 859.6 ± 1.8
342 K, 12139 kPa | 944.6 ± 1.9
342 K, 12142 kPa | 944.6 ± 1.9
343 K, 7693 kPa | 859.6 ± 1.8
343 K, 12536 kPa | 944.5 ± 1.9
343 K, 12538 kPa | 944.5 ± 1.9
344 K, 7998 kPa | 859.5 ± 1.7
344 K, 12935 kPa | 944.4 ± 1.9
344 K, 12936 kPa | 944.4 ± 1.9
345 K, 8306 kPa | 859.4 ± 1.7
345 K, 13334 kPa | 944.3 ± 1.9
346 K, 8612 kPa | 859.3 ± 1.7
346 K, 13733 kPa | 944.2 ± 1.9
347 K, 6281 kPa | 761.1 ± 1.6
347 K, 8917 kPa | 859.3 ± 1.7
347 K, 14131 kPa | 944.1 ± 1.9
348 K, 6505 kPa | 761.1 ± 1.7
348 K, 9225 kPa | 859.2 ± 1.7
348 K, 14528 kPa | 944 ± 1.9
349 K, 5380 kPa | 475.9 ± 2.4
349 K, 6732 kPa | 761 ± 1.6
349 K, 9535 kPa | 859.1 ± 1.7
349 K, 14929 kPa | 943.9 ± 1.9
350 K, 5486 kPa | 475.9 ± 3.4
350 K, 5543 kPa | 525.9 ± 2.6
350 K, 5720 kPa | 615 ± 2.5
350 K, 6957 kPa | 761 ± 1.6
350 K, 9844 kPa | 859 ± 1.7
350 K, 15331 kPa | 943.8 ± 1.9
351 K, 5591 kPa | 475.9 ± 3.1
351 K, 5661 kPa | 525.9 ± 2.3
351 K, 5866 kPa | 615 ± 2.1
351 K, 7184 kPa | 760.9 ± 1.6
351 K, 10153 kPa | 859 ± 1.7
351 K, 15729 kPa | 943.7 ± 1.9
352 K, 5697 kPa | 475.9 ± 2.7
352 K, 5778 kPa | 525.9 ± 2.3
352 K, 5877 kPa | 571.5 ± 2
352 K, 6013 kPa | 615 ± 1.9
352 K, 7411 kPa | 760.8 ± 1.6
352 K, 10462 kPa | 858.9 ± 1.7
352 K, 16128 kPa | 943.6 ± 1.9
353 K, 5802 kPa | 475.9 ± 2.3
353 K, 5898 kPa | 525.9 ± 2.2
353 K, 6010 kPa | 571.5 ± 1.9
353 K, 6163 kPa | 615 ± 1.8
353 K, 7640 kPa | 760.8 ± 1.6
353 K, 10771 kPa | 858.8 ± 1.7
353 K, 16529 kPa | 943.5 ± 1.9
354 K, 5907 kPa | 475.9 ± 2.1
354 K, 6017 kPa | 525.8 ± 2
354 K, 6144 kPa | 571.4 ± 1.8
354 K, 6312 kPa | 614.9 ± 1.7
354 K, 7867 kPa | 760.7 ± 1.6
354 K, 11082 kPa | 858.7 ± 1.7
354 K, 16929 kPa | 943.4 ± 1.9
355 K, 6013 kPa | 475.9 ± 1.9
355 K, 6136 kPa | 525.8 ± 1.8
355 K, 6277 kPa | 571.4 ± 1.7
355 K, 6460 kPa | 614.9 ± 1.6
355 K, 8099 kPa | 760.7 ± 1.6
355 K, 11393 kPa | 858.7 ± 1.7
355 K, 17330 kPa | 943.3 ± 1.9
356 K, 6119 kPa | 475.9 ± 1.8
356 K, 6256 kPa | 525.8 ± 1.8
356 K, 6409 kPa | 571.4 ± 1.6
356 K, 6610 kPa | 614.9 ± 1.4
356 K, 8331 kPa | 760.6 ± 1.6
356 K, 11703 kPa | 858.6 ± 1.7
356 K, 17728 kPa | 943.3 ± 1.9
357 K, 6227 kPa | 475.9 ± 1.7
357 K, 6375 kPa | 525.8 ± 1.7
357 K, 6544 kPa | 571.4 ± 1.5
357 K, 6762 kPa | 614.8 ± 1.4
357 K, 8563 kPa | 760.6 ± 1.6
357 K, 12015 kPa | 858.5 ± 1.7
357 K, 18129 kPa | 943.2 ± 1.9
358 K, 6332 kPa | 475.9 ± 1.6
358 K, 6496 kPa | 525.8 ± 1.5
358 K, 6679 kPa | 571.3 ± 1.5
358 K, 6913 kPa | 614.8 ± 1.4
358 K, 8795 kPa | 760.5 ± 1.6
358 K, 12328 kPa | 858.4 ± 1.7
358 K, 18529 kPa | 943.1 ± 1.9
359 K, 6438 kPa | 475.9 ± 1.5
359 K, 6616 kPa | 525.8 ± 1.5
359 K, 6814 kPa | 571.3 ± 1.5
359 K, 7064 kPa | 614.8 ± 1.5
359 K, 9028 kPa | 760.4 ± 1.6
359 K, 12639 kPa | 858.4 ± 1.7
359 K, 18928 kPa | 943 ± 1.9
360 K, 6544 kPa | 475.9 ± 1.4
360 K, 6737 kPa | 525.8 ± 1.4
360 K, 6948 kPa | 571.3 ± 1.4
360 K, 7219 kPa | 614.7 ± 1.4
360 K, 9258 kPa | 760.4 ± 1.6
360 K, 12952 kPa | 858.3 ± 1.7
361 K, 6650 kPa | 475.8 ± 1.4
361 K, 6858 kPa | 525.7 ± 1.4
361 K, 7085 kPa | 571.3 ± 1.4
361 K, 7368 kPa | 614.7 ± 1.4
361 K, 9493 kPa | 760.3 ± 1.6
361 K, 13265 kPa | 858.2 ± 1.7
362 K, 6758 kPa | 475.8 ± 1.3
362 K, 6980 kPa | 525.7 ± 1.4
362 K, 7222 kPa | 571.2 ± 1.4
362 K, 7523 kPa | 614.7 ± 1.4
362 K, 9726 kPa | 760.3 ± 1.6
362 K, 13581 kPa | 858.1 ± 1.7
363 K, 6864 kPa | 475.8 ± 1.3
363 K, 7101 kPa | 525.7 ± 1.3
363 K, 7357 kPa | 571.2 ± 1.4
363 K, 7676 kPa | 614.6 ± 1.4
363 K, 9958 kPa | 760.2 ± 1.6
